Test results as given in patent US8835428B2, “Diacylglycerol acyltransferase inhibitors” (Piramal Enterprises Limited, priority 2008, dated 2014).

Biological target: T1, hDGAT1 (Homo sapiens, UniProt O75907)
T1 construct: host or cells: Sf9 insect cells (baculovirus); microsomal preparation
T1 sequence (O75907 1-488): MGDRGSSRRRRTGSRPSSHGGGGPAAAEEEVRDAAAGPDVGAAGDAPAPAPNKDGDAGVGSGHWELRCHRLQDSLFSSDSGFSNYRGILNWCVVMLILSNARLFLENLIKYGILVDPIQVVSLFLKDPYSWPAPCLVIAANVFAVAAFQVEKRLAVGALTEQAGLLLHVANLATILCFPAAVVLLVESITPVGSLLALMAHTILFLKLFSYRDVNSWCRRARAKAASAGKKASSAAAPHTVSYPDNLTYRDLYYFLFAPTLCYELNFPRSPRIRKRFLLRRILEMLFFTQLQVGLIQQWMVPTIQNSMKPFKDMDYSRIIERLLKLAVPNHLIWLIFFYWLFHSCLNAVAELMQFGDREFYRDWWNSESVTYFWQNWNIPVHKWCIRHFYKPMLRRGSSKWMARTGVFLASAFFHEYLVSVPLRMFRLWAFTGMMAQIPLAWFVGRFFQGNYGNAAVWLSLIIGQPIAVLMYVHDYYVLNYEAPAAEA
Experiment: In-vitro DGAT1 assay (hDGAT1 microsomes from Sf9 cells, 14C oleoyl CoA, triglyceride formation)
Format: biochemical
Experimental: In-vitro Protocol for DGAT1 Assay
Sf9 Culture and Treatment
Sf9 cells were grown in T25 flasks containing Graces's Insect media with 10% FBS with antibiotic (100 units/mL penicillin, 100 μg/mL streptomycin sulphate, 0.25 μg/mL Amptotericin B as Fungizone) grown in a 27° C. incubator:
hDGAT1ORF expression clone (RZPDo839C09146 in pDEST vector) was obtained from RZPD, Germany. hDGAT1 bacmid DNA was obtained by transformation of the hDGAT expression clone into DH10Bac E. coli competent cells. Approximately 1 μg of hDGAT1 bacmid DNA was infected into Sf9 cells with Cellfectin (Invitrogen) reagent. Following infection, Sf9 cells were incubated at 27° C. for 30 minutes. Five hours after infection, the media was replaced with growth media containing antibiotic (100 units/mL penicillin, 100 μg/mL streptomycin sulphate, 0.25 μg/mL Amptotericin B as Fungizone) and incubated at 27° C. for 72 hours. The supernatant containing the virus was centrifuged at 1500×g for 5 minutes, passed through 0.22 μm filter, and subsequently stored at 4° C. The virus was further amplified three more times by re-infection of Sf9 cells and the viral titer was determined by plaque assay.
Preparation of DGAT1 Microsomes from Sf9 Cells
Sf9 cells were seeded in spinner flasks on day 0 at a cell density of 1×10^6 and infected on day 1 with hDGAT1 baculovirus at a multiplicity of infection (MOI) of 5 and a cell density of 2×10^6. On day 3 (or 66-72 hours), cells were harvested and centrifuged at 2500×g for 10 minutes. Pellet was resuspended in lysis buffer (100 mM sucrose, 50 mM KCl, 40 mM KH2PO4, 30 mM EDTA, pH 7.2) and passed through 21-gauge needle approximately 10 times. The mixture was centrifuged at 12,000 rpm in a Sigma 12158-H rotor at 4° C. for 30 minutes. The supernatant was subjected to centrifugation at 35,000 rpm in a Beckman Ti-45 rotor at 4° C. for 1 hour. The resultant pellet containing the microsomes were resuspended overnight in 1 mL of lysis buffer and total protein concentration was estimated using Bradford Reagent. Microsomes were aliquoted and stored at −20° C.
Measurement of DGAT1 Activity
Frozen aliquots of hDGAT1 containing microsomes were thawed (5-10 mg/mL total protein) on ice and diluted to a working stock of 1 mg/mL with DGAT Assay Buffer (DAB). The DGAT reaction assay was performed by following the procedure described in U.S. Pat. No. 6,607,893 with some modifications that are described below.
Preparation of DGAT1 substrate mixture: 1 mL stock solution of DGAT1 substrate mixture contains (i) 5.6 μL of ^14C oleoyl CoA (16.8 nCi) and 35 μL 1,2-dioleoyl-sn-glycerol (409.5 μM) or (ii) 5.6 μL of ^14C oleoyl CoA (16.8 nCi) and 105 μL 1,2-dioleoyl-sn-glycerol (1228.5 μM) or (iii) 5.6 μL of ^14C oleoyl CoA (16.8 nCi) and 140 μL 1,2-dioleoyl-sn-glycerol (1638 μM).
1,2-sn-dioleoylglycerol substrate concentration in the 1 mL stock solution of DGAT1 substrate mixture was varied depending on the microsome concentration used in the assay reaction. 1,2-dioleoyl-sn-glycerol stock (19.5 mM) was prepared by dissolving 25 mg of 1,2-dioleoyl-sn-glycerol (Sigma, US) in 2060 μL of acetone. The assay was performed in duplicates in a reaction volume of 100 μL. The reaction volume consisted of: • (i) 27.5 μL of DGAT assay buffer (0.25M Sucrose, 1 mM EDTA (pH 8.0), 150 mM Tris-HCl, pH 7.4, 1.25 mg/mL, fatty acid free BSA), • (ii) 10 μL of compound, of present invention or standard (dissolved in DMSO and diluted to 10× with DAB and screened at 10 μM, 5 μM and 1 μM), • (iii) 60 μL DGAT1 substrate mixture taken from a 1 mL stock (16.8 nCi of ^14C oleoyl CoA and 409.5 μM or 1228.5 μM or 1638 μM of 1,2-dioleyl-sn-glycerol), • (iv) 2.5-10 μL of 1 mg/mL of microsomes (the amount of assay buffer was varied depending upon the concentration of microsome to make up the volume to 100 μL). Procedure:
The reaction was started by the addition of 2.5-10 μL of 1 mg/mL of microsomes (iv) to a mixture of (i), (ii) and (iii), vortexed and incubated at 37° C. for 10 minutes. […]

| SMILES | inhibition at 1 µM (At 1 μM) | further results |
| --- | --- | --- |
| COC[C@H](NC(=S)c1cc(-c2ccc(Nc3nc4ccc(F)cc4s3)cc2)no1)C(=O)OC [Example 14, (S)-2-({3-[4-(6-Fluoro-benzothiazol-2-ylamino)-phenyl]-isoxazole-5-carbothioyl}-amino)-3-methoxy-propionic acid methyl ester] |  | inhibition at 10 µM: 0 to 50% |
| CC(C)[C@@H](NC(=O)c1cc(-c2ccc(NC(=O)Nc3cccc(C#N)c3)cc2)no1)C(=O)O [Example 217, (R)-2-(3-(4-(3-(3-cyanophenyl)ureido)phenyl)isoxazole-5-carboxamido)-3-methylbutanoic acid] | 50 to 75% |  |
| COc1ccc(OC)c(NC(=O)Nc2ccc(-c3cc(C(=O)N[C@H](C(=O)O)C(C)C)on3)cc2)c1 [Example 166, (S)-2-(3-(4-(3-(2,5-Dimethoxyphenyl)ureido)phenyl)isoxazole-5-carboxamido)-3-methylbutanoic acid] | 50 to 75% |  |
| COC(=O)[C@@H](NC(=O)c1cc(-c2ccc(NC(=O)Nc3ccc(F)cc3F)cc2F)no1)C(C)C [Example 141, (S)-Methyl 2-(3-(4-(3-(2,4-difluorophenyl)ureido)-2-fluorophenyl)isoxazole-5-carboxamido)-3-methylbutanoate] |  | inhibition at 5 µM: 0 to 50% |
| CC(C)[C@H](NC(=O)c1csc(-c2ccc(NC(=O)Nc3ccc(F)cc3F)cc2)n1)C(=O)O [Example 359, (S)-2-(2-(4-(3-(2,4-difluorophenyl)ureido)phenyl)thiazole-4-carboxamido)-3-methylbutanoic acid] | 0 to 50% |  |
| CC(C)[C@H](NC(=O)c1cc(-c2ccc(Nc3nc4ccc(F)cc4s3)cc2)no1)C(=O)O [Example 44, (S)-2-({3-[4-(6-Fluoro-benzothiazol-2-ylamino)-phenyl]-isoxazole-5-carbonyl}-amino)-3-methyl-butyric acid] |  | inhibition at 10 µM: 75 to 100% |
| CC(C)[C@H](NC(=O)c1cc(-c2ccc(NC(=O)Nc3ccccc3OC(F)(F)F)cc2)no1)C(=O)O [Example 203, (S)-3-methyl-2-(3-(4-(3-(2-(trifluoromethoxy)phenyl)ureido)phenyl)isoxazole-5-carboxamido)butanoic acid] | 75 to 100% |  |
| CC(C)[C@H](NC(=O)c1cc(-c2ccc(NC(=O)Nc3cccc(Cl)c3)cc2)no1)C(=O)O [Example 209, (S)-2-(3-(4-(3-(3-chlorophenyl)ureido)phenyl)isoxazole-5-carboxamido)-3-methylbutanoic acid] | 75 to 100% |  |
| Cc1ccc(NC(=O)Nc2ccc(-c3nc(C(=O)N[C@H](C(=O)O)C(C)C)cs3)cc2)cc1C [Example 363, (S)-2-(2-(4-(3-(3,4-dimethylphenyl)ureido)phenyl)thiazole-4-carboxamido)-3-methylbutanoic acid] | 0 to 50% |  |
| CCS/C(=N\[C@@H](C(=O)OC)C(C)C)c1cc(-c2ccc(NC(=O)Nc3ccc(C)cc3)cc2)no1 [Example 225, (R,Z)-Methyl 2-(ethylthio(3-(4-(3-p-tolylureido)phenyl)isoxazol-5-yl)methyleneamino)-3-methylbutanoate] | 0 to 50% |  |
| CC(C)[C@H](NC(=O)c1cc(-c2ccc(NC(=O)Nc3ccccc3Oc3ccccc3)cc2)no1)C(=O)O [Example 238, (S)-3-Methyl-2-(3-(4-(3-(2-phenoxyphenyl)ureido)phenyl)isoxazole-5-carboxamido)butanoic acid] | 75 to 100% |  |
| COC(=O)[C@@H](NC(=S)c1cc(-c2ccc(Nc3nc4ccc(F)cc4s3)cc2)no1)C(C)C [Example 6, (S)-2-({3-[4-(6-Fluoro-benzothiazol-2-ylamino)-phenyl]-isoxazole-5-carbothioyl}-amino)-3-methyl-butyric acid methyl ester] |  | inhibition at 10 µM: 0 to 50% |
| CC(C)C(NC(=O)c1cc(-c2ccc(NC(=O)Nc3ccc(C4CCCCC4)cc3)cc2)no1)C(=O)O (stereo not drawn) [Example 293, 2-(3-(4-(3-(4-cyclohexylphenyl)ureido)phenyl)isoxazole-5-carboxamido)-3-methylbutanoic acid] | 75 to 100% |  |
| CC(C)C(NC(=O)c1cc(-c2ccc(NC(=O)Nc3ccccc3-c3ccccc3)cc2)no1)C(=O)O (stereo not drawn) [Example 291, 2-(3-(4-(3-Biphenyl-2-ylureido)phenyl)isoxazole-5-carboxamido)-3-methylbutanoic acid] | 75 to 100% |  |
| CC(C)C[C@H](NC(=O)c1onc(-c2ccc(NC(=O)Nc3ccccc3)cc2)c1-c1ccccc1)C(=O)O [Example 91, (S)-4-Methyl-2-({4-phenyl-3-[4-(3-phenyl-ureido)-phenyl]-isoxazole-5-carbonyl}-amino)-pentanoic acid] |  | inhibition at 10 µM: 0 to 50% |
| CC(C)[C@@H](NC(=O)c1cc(-c2ccc(NS(=O)(=O)c3ccc(C(F)(F)F)cc3)cc2)no1)C(=O)O [Example 319, (R)-3-methyl-2-(3-(4-(4-(trifluoromethyl)phenylsulfonamido)phenyl)isoxazole-5-carboxamido)butanoic acid] | 0 to 50% |  |
| CC(C)[C@@H](NC(=S)c1cc(-c2ccc(Nc3nc4ccc(F)cc4s3)cc2)no1)C(=O)O [Example 43, (R)-2-({3-[4-(6-Fluoro-benzothiazol-2-ylamino)-phenyl]-isoxazole-5-carbothioyl}-amino)-3-methyl-butyric acid] |  | inhibition at 10 µM: 50 to 75% |
| COC(=O)[C@H](NC(=O)c1cc(-c2ccc(NC(=O)Nc3ccccc3F)cc2)no1)C(C)C [Example 257, (R)-Methyl 2-(3-(4-(3-(2-fluorophenyl)ureido)phenyl)isoxazole-5-carboxamido)-3-methylbutanoate] | 0 to 50% |  |
| COC(=O)C(NC(=O)c1cc(-c2ccc(NC(=O)Nc3ccc(F)cc3F)cc2)no1)C(C)C (stereo not drawn) [Example 111, Methyl 2-(3-(4-(3-(2,4-difluorophenyl)ureido)phenyl)isoxazole-5-carboxamido)-3-methylbutanoate] |  | inhibition at 10 µM: 50 to 75% |
| CC(C)C(NC(=O)c1cc(-c2ccc(NC(=O)Nc3ccc(OC(F)(F)F)c(Cl)c3)cc2)no1)C(=O)O (stereo not drawn) [Example 289, (3-(4-(3-(3-chloro-4-(trifluoromethoxy)phenyl)ureido)phenyl)isoxazole-5-carboxamido)-3-methylbutanoic acid] |  | % inhibition of hDGAT1 (At 1 μM): +++ (>75% Inhibition ≦100) |
| COC(=O)[C@@H](NC(=O)c1cc(-c2ccc(NC(=O)Nc3ccccc3F)cc2F)no1)C(C)C [Example 143, (S)-methyl 2-(3-(2-fluoro-4-(3-(2-fluorophenyl)ureido)phenyl)isoxazole-5-carboxamido)-3-methylbutanoate] |  | inhibition at 5 µM: 50 to 75% |
